Like-named read-outs stand apart in the source and are kept apart here.
Experiments:
mushroom tyrosinase = assay: Tyrosinase inhibition assay; format: biochemical; details: L-tyrosine, 37 °C 20 min, three experiments, read-out: Tyrosinase inhibitory activity IC50
Method: The reaction was carried out in a 0.1 M potassium phosphate buffer (pH 6.5) containing 1.5 mM L-tyrosine and 1250 unit/mL mushroom tyrosinase and the reaction mixture was incubated at 37 °C for 20 min. The test samples were assayed for tyrosinase inhibition by measuring its effect on tyrosinase activity using an ELISA reader at 490 nm. Arbutin was used as a positive control. The inhibitory activity of the sample was expressed as the concentration that inhibits 50% of the enzyme activity (IC50).

[1] = system: B16F10 mouse melanoma cells; assay: Measurement of relative melanin contents in α-MSH-stimulated cells; format: cell-based
[2] = biological target: T1, PPE (porcine pancreas elastase) (Sus scrofa, UniProt P00772); assay: Elastase inhibition assay; format: biochemical
T1 construct: from tissue; host or cells: porcine pancreas
T1 sequence (P00772 27-266): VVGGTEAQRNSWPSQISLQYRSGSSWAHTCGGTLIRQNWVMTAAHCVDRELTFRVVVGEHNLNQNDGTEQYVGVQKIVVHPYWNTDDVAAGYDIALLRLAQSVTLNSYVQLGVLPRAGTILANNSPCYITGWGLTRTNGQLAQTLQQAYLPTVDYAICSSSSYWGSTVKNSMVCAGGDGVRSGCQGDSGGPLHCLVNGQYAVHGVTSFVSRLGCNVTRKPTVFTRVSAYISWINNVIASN
Method: The reaction was carried out in a 50 mM Tris-HCl buffer (pH 8.5) containing 1 mg/mL N-succinyl-(Ala)3-p-nitroanilide and 0.6 U/mL PPE (porcine pancreas elastase). The test sample was added to the reaction mixture, and elastase inhibition was incubated at 25 °C for 10 min. The change in absorbance was measured at 405 nm using an ELISA reader. Ursolic acid was used as a positive control. The inhibitory activity of the sample was expressed as the concentration that inhibits 50% of the enzyme activity (IC50).

[3] = system: B16F10 mouse melanoma cells; assay: Measurement of relative melanin contents in α-MSH-stimulated cells; format: cell-based; details: for activity at 25 µM / activity at 50 µM / activity at 100 µM / inhibition at 100 µM: Mus musculus, B16-F10; for activity at 25 µM / activity at 50 µM / activity at 100 µM: 100 nM α-MSH, 72 h; for activity at 100 µM / effect on melanin content compared to arbutin: 100 μM; for effect on melanin content compared to arbutin: arbutin 400 μM
Method: B16F10 mouse melanoma cells were cultured in DMEM medium containing 10% FBS and 1% penicillin-streptomycin in a 37 °C incubator with 5% CO2. The cells were seeded in 100-mm tissue culture dishes to be used for subsequent experiments.
B16F10 cells (1 × 10^5/well) were seeded in 6 well plates for 24 h. The cells were then incubated in the presence of 100 nM α-MSH, and treated with various concentrations (25, 50, and 100 μM) of sample for 72 h. After being washed twice with PBS, the cells were dissolved of 1 N NaOH and 10% DMSO, incubated at 60 °C for 1 h, and mixed to solubilize the melanin. Relative melanin content was determined with an ELISA reader by absorbance at 405 nm.

[4] = porcine pancreas elastase, N-succinyl-(Ala)3-p-nitroanilide, 25 °C 10 min, three experiments, read-out: Elastase inhibitory activity IC50
[5] = at a concentration of 100 μM, read-out: inhibition of melanogenesis
[6] = in the range of 50 ~ 100 μM, α-MSH-stimulated, read-out: inhibition percentage of melanin production

SMILES	IC50 (mushroom tyrosinase) [µM]	activity at 400 µM ([1]; B16-F10, 100 nM α-MSH, 72 h) [%]	inhibition at 400 µM ([1]; B16-F10, α-MSH-stimulated, read-out: inhibition rate of melanin production) [%]	IC50 [2, 4] [mM]	activity at 25 µM [3] [%]	activity at 50 µM [3] [%]	activity at 100 µM [3] [%]	IC50 [2] [mM]	inhibition at 100 µM [3, 5] [%]	effect on melanin content compared to arbutin ([3]; α-MSH-stimulated)	inhibition at 100 µM [3, 6] [%]
OC[C@H]1O[C@@H](Oc2ccc(O)cc2)[C@H](O)[C@@H](O)[C@@H]1O [Arbutin]	474 ± 18.2	30.7 ± 3.34	69.2								
COc1cc(C(=O)O)ccc1O [Compound 1, Vanillic acid]				> 1	91.3 ± 4.81	74.78 ± 0.69	64 ± 1.45				
OC[C@H]1O[C@@H](Oc2cc(O)cc(/C=C/c3ccc(O)cc3)c2)[C@H](O)[C@@H](O)[C@@H]1O [Compound 2, trans-Piceid]	51.2 ± 5.5			> 1	136 ± 3.36	132 ± 6.52	116 ± 6.39				
Oc1cc(O)cc(/C=C/c2ccc(O)cc2O)c1 [Compound 3, Oxyresveratrol]	6.42 ± 0.45				118 ± 3.73	109 ± 1.96	29.6 ± 2.21	> 1	70.4 to 91		
Oc1ccc(/C=C/c2cc(O)cc(O)c2)cc1 [Compound 4, Resveratrol]	19.8 ± 0.77			> 1	82.3 ± 1.18	27.3 ± 5.83	17.3 ± 0.01		70.4 to 91	greatly decreased	72.7 to 82.7
O=c1cc(-c2ccc(O)c(O)c2)oc2cc(O)cc(O)c12 [Compound 5, Luteolin]	37.9 ± 1.04			0.292 ± 0.0144	18 ± 0.76	16.4 ± 1.65	8.99 ± 0.73		70.4 to 91	greatly decreased	83.5 to 91
O=c1cc(-c2ccc(O)cc2)oc2cc(O)cc(O)c12 [Compound 6, Apigenin]	> 100			> 1	83.6 ± 3.01	63.2 ± 2.11	16.2 ± 1.52		70.4 to 91		
COc1cc(-c2cc(=O)c3c(O)cc(O)cc3o2)cc(OC)c1O [Compound 7, Tricin]	> 100			> 1	65.2 ± 1.18	65.4 ± 1.41	56.4 ± 0.89				
COc1cc(-c2cc(=O)c3c(O)cc(O)cc3o2)ccc1O [Compound 8, Chrysoeriol]					37 ± 4.57	27.3 ± 0.8	23.4 ± 2.19		70.4 to 91	greatly decreased	72.6 to 76.6
C[C@H]1[C@H](C)CC[C@]2(C(=O)O)CC[C@]3(C)C(=CC[C@@H]4[C@@]5(C)CC[C@H](O)C(C)(C)[C@@H]5CC[C@]43C)[C@H]12 [Ursolic acid, reference compound]				0.0969 ± 0.00133							
